pEC50, pKd, pKi: −log10 of the molar value. Values joined by “and” are separate entries in the source; they are usually repeats but may differ in a detail not shown here. Equal entries are not always repeated. Where two headings read alike, the source gives them in different places.
Legend:
HA-tagged Smo = HA-tagged Smo (Mus musculus, UniProt P56726); assay: whole cell/immunocomplex binding assay, Smo-transfected 293T cells; details: unlabeled competitor at 5 μM, 37°C, 2 hours
[1] = biological target: murine Smo W539L (Smo^act) (Mus musculus, UniProt P56726, W539L); assay: filtration membrane-binding assay, Smo^act-containing membranes
Hh signaling = assay: luciferase-based reporter assay of Hh signaling in C3H10T1/2 cells; format: cell-based; details: for inhibition of Hh protein-activated versus agonist-activated cells: Hh protein (10 nM) or Hh-Ag 1.2 (200 nM); for effect on pathway activation by the agonist: cells activated by Hh-Ag 1.2 (200 nM)
murine Smo = murine Smo (Mus musculus, UniProt P56726); assay: filtration membrane-binding assay, Smo-containing membranes from 293T cells
Smo^act-expressing cells = details: ref [11],[17]; cited from earlier work
[2] = Smo^act, competition with [3H]-Hh-Ag 1.5 (0.4 nM)
[3] = Smo^wt, competition with [3H]-Hh-Ag 1.5 (0.4 nM)

HA-tagged Smo, sequence (P56726 33-793): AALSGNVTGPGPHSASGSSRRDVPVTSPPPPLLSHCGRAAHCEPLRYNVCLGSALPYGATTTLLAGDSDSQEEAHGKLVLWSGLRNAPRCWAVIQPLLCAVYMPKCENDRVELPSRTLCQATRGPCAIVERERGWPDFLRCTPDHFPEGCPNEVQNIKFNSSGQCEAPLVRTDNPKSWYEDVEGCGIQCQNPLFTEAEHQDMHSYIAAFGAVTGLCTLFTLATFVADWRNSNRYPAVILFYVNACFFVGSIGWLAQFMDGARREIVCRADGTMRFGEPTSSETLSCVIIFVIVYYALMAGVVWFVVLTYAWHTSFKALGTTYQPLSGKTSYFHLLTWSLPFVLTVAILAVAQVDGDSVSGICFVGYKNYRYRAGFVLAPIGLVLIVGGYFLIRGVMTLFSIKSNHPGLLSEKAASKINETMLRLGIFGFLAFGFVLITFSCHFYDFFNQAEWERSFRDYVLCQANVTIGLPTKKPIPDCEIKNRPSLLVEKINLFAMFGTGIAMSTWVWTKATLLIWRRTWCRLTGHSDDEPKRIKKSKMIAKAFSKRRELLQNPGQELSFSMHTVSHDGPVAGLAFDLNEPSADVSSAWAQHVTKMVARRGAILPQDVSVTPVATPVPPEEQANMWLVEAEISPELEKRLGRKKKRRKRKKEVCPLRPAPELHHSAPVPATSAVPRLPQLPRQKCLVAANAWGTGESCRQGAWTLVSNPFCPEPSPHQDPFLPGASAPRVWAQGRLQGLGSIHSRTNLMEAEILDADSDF
murine Smo, sequence (P56726 33-793): as above
murine Smo W539L (Smo^act), sequence (P56726 33-793 W539L): as the sequence (P56726 33-793) above, with W507L counted along it

## COc1cccc(CN(C(=O)CC(C)(C)C)[C@H]2C[C@@H](C(=O)N3CCNCC3)N(Cc3ccc4c(c3)OCO4)C2)c1 [Cur61414]
HA-tagged Smo
  competition of [3H]-Hh-Ag 1.5 (5 nM) binding: significantly compete
[1]
  Ki on Smo^act- compared to Smo^wt-containing membranes: seven-fold higher
[1]; [2]
  pKi: 6.51
Hh signaling
  inhibition of Hh protein-activated versus agonist-activated cells: differ in their sensitivity
  effect on pathway activation by the agonist: inhibitory
Murine Smo; [3]
  pKi: 7.36
Murine Smo; competitor at 10 μM
  competition of [3H]-Hh-Ag 1.5 (2 nM) binding: significantly compete
Smo^act-expressing cells
  potency on Smo^act-expressing cells: decreased potency

## CNC1CCC(N(Cc2cccc(-c3ccncc3)c2)C(=O)c2sc3c(F)ccc(F)c3c2Cl)CC1 (stereo not shown) [Hh-Ag 1.5]
HA-tagged Smo
  competition of [3H]-Hh-Ag 1.5 (5 nM) binding: complete absence of counts in the immunocomplex
[1]; [2]
  pKi: ~9.30
[1]; kinetic and saturation binding assay, data not shown
  affinity for Smo^act: affinity identical to that of Smo^wt
Hh signaling; cell-based reporter assay
  pEC50: ~9.00 and 9.00
Hh signaling; relative to Hh-Ag 1.1
  increase of potency by chemical modification: over 1000 fold
Murine Smo; [3]
  pKi: 9.28 and ~9.30
Murine Smo; saturation binding, approximately 45 hours at 37°C, one-site model
  pKd: 9.43
Murine Smo; unlabeled competitor at 2 μM
  competition of [3H]-Hh-Ag 1.5 (2 nM) binding: completely competed out

## CC1=C2C[C@H]3[C@@H](CC=C4CC(=O)CC[C@@]43C)[C@@H]2CC[C@]12O[C@@H]1C[C@H](C)CN(CCNC(=O)CCCCCNC(=O)CCc3ccccc3)[C@H]1[C@H]2C [KAAD-cyclopamine]
HA-tagged Smo
  competition of [3H]-Hh-Ag 1.5 (5 nM) binding: significantly compete
[1]
  pKi: 7.42
  Ki on Smo^act- compared to Smo^wt-containing membranes: seven-fold higher
Hh signaling
  inhibition of Hh protein-activated versus agonist-activated cells: Identical results
Murine Smo
  pKi: 8.24
  competition of [3H]-Hh-Ag 1.5 (2 nM) binding: significantly compete
Smo^act-expressing cells
  potency on Smo^act-expressing cells: decreased potency

## CC1=C2C[C@H]3[C@@H](CC=C4C[C@@H](O)CC[C@@]43C)[C@@H]2CC[C@]12O[C@@H]1C[C@H](C)CN[C@H]1[C@H]2C [cyclopamine]
Hh signaling
  inhibition of Hh protein-activated versus agonist-activated cells: differ in their sensitivity

## C=C[C@@]1(C)CC(=O)[C@]2(O)[C@@]3(C)[C@@H](O)CCC(C)(C)[C@@H]3[C@H](O)[C@H](OC(C)=O)[C@@]2(C)O1 [forskolin]
Hh signaling
  inhibition of Hh protein-activated versus agonist-activated cells: identical inhibition curves
  effect on pathway activation by the agonist: inhibitory

## CC1=C2C(=O)[C@H]3[C@@H](CC=C4C[C@@H](O)CC[C@@]43C)[C@@H]2CC[C@]12O[C@@H]1C[C@H](C)CN[C@H]1[C@H]2C [jervine]
Hh signaling
  inhibition of Hh protein-activated versus agonist-activated cells: Identical results

## C[C@H]1CC[C@]2(NC1)O[C@H]1C[C@H]3[C@@H]4CC[C@H]5C[C@@H](O)CC[C@]5(C)[C@H]4CC[C@]3(C)[C@H]1[C@@H]2C [tomatadine]
Hh signaling; described in words
  Hh signaling activity: inactive
